The source of these data is paper PMC3489029 (Journal of the American Chemical Society, 2012).

Experiment [1] concerns the target cell wall binding domain of the endolysin PlyL (Bacillus anthracis, UniProt A0A6H3AMF3). Kind of experiment: biochemical. More on the design: species or system Bacillus anthracis bacteriophage.
Experiment [2] deals with cell wall binding domain of the endolysin PlyG (Bacillus phage Gamma, UniProt Q8LTE6). Kind of experiment: biochemical. More on the design: species or system Bacillus anthracis bacteriophage.
cell wall binding domain of the endolysin PlyG, sequence (Q8LTE6 166-233 limits assumed): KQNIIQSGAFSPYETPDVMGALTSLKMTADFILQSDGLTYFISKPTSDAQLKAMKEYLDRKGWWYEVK

cell wall binding domain of the endolysin PlyL, sequence (A0A6H3AMF3 160-234 limits assumed): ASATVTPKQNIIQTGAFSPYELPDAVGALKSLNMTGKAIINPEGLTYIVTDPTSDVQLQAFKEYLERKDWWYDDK

On to `CC(=O)N[C@@H]1[C@H](O[C@H]2[C@H](O[C@H]3O[C@H](CO)[C@H](O)[C@H](O)[C@H]3O)[C@@H](NC(C)=O)[C@H](OCCCCCN)O[C@@H]2CO)O[C@H](CO)[C@@H](O[C@H]2O[C@H](CO)[C@@H](O[C@@H]3O[C@H](CO)[C@H](O)[C@H](O)[C@H]3O)[C@H](O[C@H]3O[C@H](CO)[C@H](O)[C@H](O)[C@H]3O)[C@H]2NC(C)=O)[C@@H]1O` [Compound 1], for which, in experiment [1], the dissociation constant (Kd) is 23 ± 2 µM and the “fold reduced affinity compared to tetrasaccharide 3” value was determined as 10 fold. In addition, the Kd in experiment [2] turned out to be 23.3 ± 0.5 µM.

`CC(=O)N[C@@H]1[C@H](O[C@H]2[C@H](O)[C@@H](NC(C)=O)[C@H](OCCCCCN)O[C@@H]2CO)O[C@H](CO)[C@@H](O[C@H]2O[C@H](CO)[C@@H](O)[C@H](O)[C@H]2NC(C)=O)[C@@H]1O` [Compound 2]: the Kd turned out to be 13.5 µM in experiment [1] and 8.6 ± 0.4 µM in experiment [2].

As to `CC(=O)N[C@@H]1[C@H](O[C@H]2[C@H](O)[C@@H](NC(C)=O)[C@H](OCCCCCN)O[C@@H]2CO)O[C@H](CO)[C@@H](O[C@H]2O[C@H](CO)[C@@H](O[C@@H]3O[C@H](CO)[C@H](O)[C@H](O)[C@H]3O)[C@H](O)[C@H]2NC(C)=O)[C@@H]1O` [Compound 3], the Kd in experiment [1] was found to be 1.1 µM; in experiment [2], 2.1 ± 1.1 µM. For the same compound, the “binding to PlyL in words” value in experiment [1] is listed as “exceptional high affinity”.

As for `CC(=O)N[C@@H]1[C@H](O[C@H]2[C@H](O)[C@@H](NC(C)=O)[C@H](OCCCCCN)O[C@@H]2CO)O[C@H](CO)[C@@H](O[C@H]2O[C@H](CO)[C@@H](O)[C@H](O[C@H]3O[C@H](CO)[C@H](O)[C@H](O)[C@H]3O)[C@H]2NC(C)=O)[C@@H]1O` [Compound 4], the Kd in experiment [1] is 153 ± 10 µM; in experiment [2], 136 ± 7 µM. Also, the “binding to PlyL in words” value in experiment [1] was “complexed poorly with the protein”.

With `CC(=O)N[C@@H]1[C@H](O[C@H]2[C@H](O[C@H]3O[C@H](CO)[C@H](O)[C@H](O)[C@H]3O)[C@@H](NC(C)=O)[C@H](OCCCCCN)O[C@@H]2CO)O[C@H](CO)[C@@H](O[C@H]2O[C@H](CO)[C@@H](O)[C@H](O)[C@H]2NC(C)=O)[C@@H]1O` [Compound 5], the values for the Kd in experiment [1] and in experiment [2] were 6.2 ± 2 µM and 4.1 ± 0.5 µM, respectively.

Consider `CC(=O)N[C@@H]1[C@H](O[C@H]2[C@H](O)[C@@H](NC(C)=O)[C@H](OCCCCCN)O[C@@H]2CO)O[C@H](CO)[C@@H](O)[C@@H]1O` [Compound 6], for which the Kd stood at 110 ± 9 µM in experiment [1] and 49 ± 2 µM in experiment [2].

Consider `CC(=O)N[C@@H]1[C@H](O[C@H]2[C@H](O)[C@@H](NC(C)=O)[C@H](OCCCCCN)O[C@@H]2CO)O[C@H](CO)[C@@H](O[C@H]2O[C@H](CO)[C@H](O)[C@H](O)[C@H]2NC(C)=O)[C@@H]1O` [Compound 7], for which the dissociation constant (Kd) is 43 ± 11 µM in experiment [1] and 19.5 ± 7.5 µM in experiment [2].
